# Laboratory results reported in US8012748B2, “Peripheral nervous system specific sodium channel nucleic acids” (The Research Foundation of State University of New York, priority 1994, dated 2011).
# Columns and labels:
# DRG sodium channel = settings: cited from earlier work
# [1] = biological target: T1, PNS SCP (PN1 sodium channel) in PK1-4 cells (Rattus norvegicus, UniProt O08562); experiment: (14C) guanidinium flux assay in cells expressing a PNS SCP; assay type: cell-based
# T1 construct: PKI-4 cells express a PNS SCP(PN1) without NGF treatment; endogenous in cells
# T1 sequence (O08562 whole entry): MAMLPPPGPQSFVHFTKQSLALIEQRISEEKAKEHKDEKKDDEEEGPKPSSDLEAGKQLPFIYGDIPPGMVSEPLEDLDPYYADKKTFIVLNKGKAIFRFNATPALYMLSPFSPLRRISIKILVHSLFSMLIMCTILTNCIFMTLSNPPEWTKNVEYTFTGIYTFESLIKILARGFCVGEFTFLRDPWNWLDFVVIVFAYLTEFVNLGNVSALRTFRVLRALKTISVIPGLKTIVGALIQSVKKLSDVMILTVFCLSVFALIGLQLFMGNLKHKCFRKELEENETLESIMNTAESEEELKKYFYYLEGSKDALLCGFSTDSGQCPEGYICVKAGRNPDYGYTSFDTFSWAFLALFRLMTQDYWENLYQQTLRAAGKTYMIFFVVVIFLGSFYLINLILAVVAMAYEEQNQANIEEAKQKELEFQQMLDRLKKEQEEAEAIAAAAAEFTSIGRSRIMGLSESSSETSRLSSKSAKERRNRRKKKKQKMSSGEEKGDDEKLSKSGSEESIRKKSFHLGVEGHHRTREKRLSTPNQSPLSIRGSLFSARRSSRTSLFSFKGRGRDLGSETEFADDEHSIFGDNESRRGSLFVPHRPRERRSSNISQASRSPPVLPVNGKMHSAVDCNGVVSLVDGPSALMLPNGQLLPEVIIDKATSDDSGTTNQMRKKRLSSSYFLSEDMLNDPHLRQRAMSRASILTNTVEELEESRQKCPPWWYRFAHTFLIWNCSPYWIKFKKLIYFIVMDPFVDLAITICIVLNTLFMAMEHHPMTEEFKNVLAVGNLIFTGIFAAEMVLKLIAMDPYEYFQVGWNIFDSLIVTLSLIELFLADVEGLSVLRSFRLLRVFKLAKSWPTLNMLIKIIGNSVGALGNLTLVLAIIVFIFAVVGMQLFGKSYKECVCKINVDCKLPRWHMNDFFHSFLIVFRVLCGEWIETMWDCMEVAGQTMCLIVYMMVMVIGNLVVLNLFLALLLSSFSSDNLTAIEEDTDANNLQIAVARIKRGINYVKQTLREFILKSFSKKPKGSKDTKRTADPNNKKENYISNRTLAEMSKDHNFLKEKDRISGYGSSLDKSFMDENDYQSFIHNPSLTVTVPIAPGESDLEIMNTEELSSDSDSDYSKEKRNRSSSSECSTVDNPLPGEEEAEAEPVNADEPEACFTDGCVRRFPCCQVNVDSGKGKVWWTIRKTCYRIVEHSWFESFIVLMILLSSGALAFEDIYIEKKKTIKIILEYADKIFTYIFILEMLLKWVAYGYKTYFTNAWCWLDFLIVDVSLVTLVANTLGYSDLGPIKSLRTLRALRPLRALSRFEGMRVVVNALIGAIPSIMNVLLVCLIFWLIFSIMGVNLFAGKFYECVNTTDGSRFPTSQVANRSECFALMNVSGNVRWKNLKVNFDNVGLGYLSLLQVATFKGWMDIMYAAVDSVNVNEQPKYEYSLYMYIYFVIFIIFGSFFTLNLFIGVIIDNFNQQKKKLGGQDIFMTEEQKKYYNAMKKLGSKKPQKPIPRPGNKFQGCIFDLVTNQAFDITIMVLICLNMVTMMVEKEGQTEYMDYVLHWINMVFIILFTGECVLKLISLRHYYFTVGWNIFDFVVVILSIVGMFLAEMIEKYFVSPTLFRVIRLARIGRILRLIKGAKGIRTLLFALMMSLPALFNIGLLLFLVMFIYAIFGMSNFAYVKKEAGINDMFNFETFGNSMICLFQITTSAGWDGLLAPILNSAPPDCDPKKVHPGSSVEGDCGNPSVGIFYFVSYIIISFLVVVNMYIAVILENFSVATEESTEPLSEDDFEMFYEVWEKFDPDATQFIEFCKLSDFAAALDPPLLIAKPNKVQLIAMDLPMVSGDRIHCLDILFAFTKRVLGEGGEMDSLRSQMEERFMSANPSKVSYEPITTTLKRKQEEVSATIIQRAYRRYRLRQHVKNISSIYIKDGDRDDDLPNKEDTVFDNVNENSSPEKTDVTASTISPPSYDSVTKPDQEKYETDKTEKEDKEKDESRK
SMILES,kD for TTX of the DRG channel relative to the kD of sodium channels in skeletal muscle or heart (DRG sodium channel),"inhibition of sodium channel activity of at least one PNS SCP ([1]; cell lines expressing at least one PNS SCP (PC12, PK1-4 and other isolated or recombinant cells))","IC50 ([1]; guanidinium flux assay, PK1-4 cells, read-out: for inhibition of sodium channel activity (converted)) [nM]"
"NC1=N[C@H](O)[C@H]2[C@H]3O[C@]4(O)O[C@@H]([C@@H](O)[C@@]2(N1)[C@@H]4O)[C@]3(O)CO [TTX, tetrodotoxin]",approximately tenfold higher,,
Cc1cccc(C)c1NC(=O)CN1CCN(CCCC(c2ccc(F)cc2)c2ccc(F)cc2)CC1 [lidoflazine],,found to inhibit sodium channel activity,309
